Measured values as given in patent publication US6407233B1, “Halogen pyrimidines and its use thereof as parasite abatement means” (Bayer Aktiengesellschaft, priority 1996, dated 2002).

How the values were obtained:
[1] = system: Erysiphe graminis f.sp. hordei; assay: Erysiphe test (barley)/curative; assay type: in vivo; conditions: curative (sprayed 48 hours after inoculation), application rate 250 g/ha, evaluated 7 days after inoculation
[2] = system: Fusarium nivale var. majus; assay: Fusarium nivale (var. majus) test (wheat)/protective; conditions: protective, application rate 250 g/ha, evaluated 4 days after inoculation
Protocol: Fusarium nivale (var. Majus) Test (Wheat)/protective
(§1) Solvent: 10 parts by weight of N-methylpyrrolidone
(§2) Emulsifier: 0.6 part by weight of alkylaryl polyglycol ether
After the spray coating has dried on, the plants are sprayed with a conidia suspension of Fusarium nivale var. majus.
(§3) The plants are placed in a greenhouse at a temperature of about 15° C. and a relative atmospheric humidity of about 100% under translucent incubation hoods.
(§4) The test is evaluated 4 days after inoculation.

[3] = system: Fusarium nivale var. nivale; assay: Fusarium nivale (var. nivale) test (wheat)/curative; conditions: curative (sprayed 24 hours after inoculation), application rate 250 g/ha, evaluated 4 days after inoculation
Protocol: Fusarium nivale (var. nivale) Test (Wheat)/curative
Solvent: 100 parts by weight of dimethylformamide
Emulsifier: 0.25 part by weight of alkylaryl polyglycol ether
To test for curative activity, young plants are sprayed with a conidia suspension of Fusarium nivale var. nivale.
The plants remain in an incubation cabin at 15° C. and a relative atmospheric humidity of 100% for 24 hours.
After the spray coating has dried on, the plants remain in a greenhouse under translucent incubation hoods at a temperature of about 15° C. and a relative atmospheric humidity of about 100%.
as §4

[4] = system: Fusarium nivale var. nivale; assay: Fusarium nivale (var. nivale) test (wheat)/protective; conditions: protective, application rate 250 g/ha, evaluated 4 days after inoculation
Protocol: Fusarium nivale (var. nivale) Test (Wheat)/protective
as §1, §2
After the spray coating has dried on, the plants are sprayed with a conidia suspension of Fusarium nivale var. nivale.
as §3, §4

[5] = system: Erysiphe graminis f.sp. hordei; assay: Erysiphe test (barley)/protective; assay type: in vivo; conditions: protective, application rate 250 g/ha, evaluated 7 days after inoculation
Protocol: The test is evaluated 7 days after the inoculation.

[6] = system: Pseudocercosporella herpotrichoides; assay: Pseudocercosporella herpotrichoides test (wheat)/protective; assay type: in vivo; conditions: protective, application rate 250 g/ha, evaluated 21 days after inoculation
Protocol: The test is evaluated 21 days after inoculation.

CO/N=C(/C1=NOCCO1)c1ccccc1Oc1ncnc(Oc2ccccc2Cl)c1F [Example 1, 3-{1-[2-(4-<2-chlorophenoxy>-5-fluoropyrimid-6-yloxy)-phenyl]-1-(methoximino)-methyl}-5,6-dihydro-1,4,2-dioxazine]
efficacy in comparison with the untreated control [1]: 100%

CON=C(C1=NOCCO1)c1ccccc1Oc1ncnc(Oc2cc(C)cc(C)c2C)c1F [Example 14]
efficacy in comparison with the untreated control [2]: 100%

C=C(C)Cc1ccccc1Oc1ncnc(Oc2ccccc2C(=NOC)C2=NOCCO2)c1F [Example 31]
efficacy in comparison with the untreated control [3]: 100%

CON=C(C1=NOCCO1)c1ccccc1Oc1ncnc(Oc2ccccc2OCc2ccccc2)c1F [Example 33]
efficacy in comparison with the untreated control [2]: 100%

CCCc1ccccc1Oc1ncnc(Oc2ccccc2C(=NOC)C2=NOCCO2)c1F [Example 34]
efficacy in comparison with the untreated control [3]: 100% | efficacy in comparison with the untreated control [4]: 100%

CON=C(C1=NOCCO1)c1ccccc1Oc1ncnc(Oc2cccc3c2CC(C)(C)O3)c1F [Example 42]
efficacy in comparison with the untreated control [2]: 100%

CON=C(C1=NOCCO1)c1ccccc1Oc1ncnc(Oc2ccccc2C2OCC(C)(C)CO2)c1F [Example 59]
efficacy in comparison with the untreated control [5]: 100%

CON=C(C1=NOCCO1)c1ccccc1Oc1ncnc(Oc2ccccc2C(=O)NCc2ccccc2)c1F [Example 69]
efficacy in comparison with the untreated control [6]: 100%

CON=C(C1=NOCCO1)c1ccccc1Oc1ncnc(Oc2ccccc2Cn2cncn2)c1F [Example 71]
efficacy in comparison with the untreated control [6]: 100%
